Assay results from patent US8609870B2, “Treating various disorders using TrkB agonists” (Emory University, priority 2008, dated 2013).

How the values were obtained:
TrkB [1] = experiment: TrkB phosphorylation in hippocampal neurons (immunofluorescent staining, immunoblotting); assay type: cell-based; conditions: hippocampal neurons
Experimental: Unless specifically described, primary hippocampal neurons are seeded on poly-L lysine coated coverslips in a 12-well plate. After 7 days in vitro, the neurons are treated with 100 ng/ml BDNF or variety of flavone compounds (1 μM) for 30 minutes, and then are washed with PBS. Cells are fixed with 3% formaldehyde in PBS at room temperature for 10 minutes. The cells then are permeabilized and blocked by 0.4% Triton X-100 and 2% FBS in PBS at room temperature for 15 minutes, are washed with PBS three times, and are treated with anti-MAP2 (1:200) and anti-phospho-TrkB antibodies (1:500). After staining with FITC- or Rhodamine-conjugated secondary antibody, the coverslips are mounted on slides. Fluorescent images are taken by a fluorescence microscope.
BDNF binding to TrkB induces its autophosphorylation and, subsequently, activation of downstream kinase pathways including MAPK and PI3/Akt. […] To examine whether an identified active compound stimulates TrkB-mediated downstream signaling cascades, Western analysis is performed and the activation of Akt and Erk also is monitored. […] To probe the time course of TrkB activation triggered by an identified active compound, hippocampal neurons are treated with an identified active compound at 500 nM and phosphorylation of Erk and Akt is determined over time by Western analysis. […]

Erk1/2 and Akt = Erk1/2 and Akt activation in hippocampal neurons (Western blot); assay type: cell-based; conditions: hippocampal neurons
Experimental: BDNF binding to TrkB induces its autophosphorylation and, subsequently, activation of downstream kinase pathways including MAPK and PI3/Akt. To explore whether an identified active compound triggers TrkB activation, immunofluorescent staining on hippocampal neurons with anti-phospho TrkB antibody is conducted. To examine whether an identified active compound stimulates TrkB-mediated downstream signaling cascades, Western analysis is performed and the activation of Akt and Erk also is monitored. To test whether the stimulatory effect of an identified active compound is mediated through TrkB, cells are either untreated or treated with K252a, a selective inhibitor of the tyrosine kinase activity of the Trk family of neutrophin receptors. Cells treated with K252a block TrkB tyrosine phosphorylation in cells exposed to an identified active compound. To probe the time course of TrkB activation triggered by an identified active compound, hippocampal neurons are treated with an identified active compound at 500 nM and phosphorylation of Erk and Akt is determined over time by Western analysis. Whether stimulation of Erk and Akt by an identified active compound occurs in a dose dependent manner also is determined.
(§1) Both Akt and Erk1/2 were robustly activated by these molecules as well). […] The minimal required drug concentration was about 100-250 nM (see FIG. 7, right panels). […] To assess whether deoxygedunin provokes TrkB activation in the brain, mice (i.p.) were injected with a dose of 5 mg/kg for various time points. […] To establish that deoxygedunin is orally bioactive in provoking TrkB activation, two to three month old C57BL/6J mice were orally injected with various doses of 7,8-dihydroxyflavone or deoxygedunin then sacrificed 2 to 4 hours after administration. Brain lysates were prepared and analyzed by immunoblotting (see FIG. 10).

TrkB [2] = target: T1, TrkB (Mus musculus, UniProt P15209); experiment: TrkB activation in mouse brain after i.p. or oral administration; assay type: in vivo
T1 construct: Brain lysates were prepared and analyzed by immunoblotting; from tissue; host or cells: mouse brain
T1 sequence (P15209 32-821): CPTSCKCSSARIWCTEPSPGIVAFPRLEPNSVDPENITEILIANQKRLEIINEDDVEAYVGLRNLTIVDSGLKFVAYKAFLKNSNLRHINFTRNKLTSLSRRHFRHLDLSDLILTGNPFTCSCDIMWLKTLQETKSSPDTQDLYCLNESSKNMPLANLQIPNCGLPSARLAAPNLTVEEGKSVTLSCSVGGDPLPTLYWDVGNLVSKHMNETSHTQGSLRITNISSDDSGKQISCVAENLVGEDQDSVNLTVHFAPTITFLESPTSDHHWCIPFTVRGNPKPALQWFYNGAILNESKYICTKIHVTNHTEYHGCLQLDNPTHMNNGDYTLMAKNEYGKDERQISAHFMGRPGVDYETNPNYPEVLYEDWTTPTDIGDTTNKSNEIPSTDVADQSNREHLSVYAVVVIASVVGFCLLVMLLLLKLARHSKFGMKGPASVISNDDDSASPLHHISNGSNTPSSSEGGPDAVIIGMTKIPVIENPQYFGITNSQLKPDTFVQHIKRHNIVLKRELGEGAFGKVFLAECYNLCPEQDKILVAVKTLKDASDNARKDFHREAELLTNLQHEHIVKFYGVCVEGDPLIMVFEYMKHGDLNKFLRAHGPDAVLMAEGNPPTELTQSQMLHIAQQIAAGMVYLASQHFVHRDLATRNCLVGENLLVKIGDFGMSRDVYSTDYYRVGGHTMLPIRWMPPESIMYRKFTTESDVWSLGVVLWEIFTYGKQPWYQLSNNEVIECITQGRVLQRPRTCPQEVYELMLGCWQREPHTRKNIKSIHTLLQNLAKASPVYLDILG
Experimental: Unless specifically described, brain tissues are fixed in 4% paraformaldehyde overnight followed by paraffin embedding. Sections of 5 μm are cut. For immunohistochemical staining, brain sections are deparaffinized in xylene and rehydrated in graded alcohols. Endogenous peroxidase activity are blocked by 3% hydrogen peroxide for 5 minutes and all slides are boiled in 10 mM sodium citrate buffer (pH 6.0) for 10 minutes. Phosphorylated Trk A, Trk A, phosphorylated Trk B, and Trk B are detected using specific antibodies and, e.g., a Zymed HistostainPlus AEC kit (Invitrogen; Carlsbad, Calif.). Slides then are counterstained with hematoxylin.
To assess whether an identified active compound provokes TrkB activation in the brain, mice are intraperitoneally injected with a dose of 5 mg/kg and analyzed at various time points. […] Further, whether the protein and mRNA levels of the neurotrophic receptors is altered after treatment with an identified active compound is measured.
as §1

TrkB [3] = target: T2, TrkB (Homo sapiens, UniProt Q16620); experiment: Tyrosine phosphorylation of TrkB in transfected HEK293 cells; assay type: cell-based
T2 construct: expressed in transfected cells; host or cells: HEK293
T2 sequence (Q16620 32-822, species assumed): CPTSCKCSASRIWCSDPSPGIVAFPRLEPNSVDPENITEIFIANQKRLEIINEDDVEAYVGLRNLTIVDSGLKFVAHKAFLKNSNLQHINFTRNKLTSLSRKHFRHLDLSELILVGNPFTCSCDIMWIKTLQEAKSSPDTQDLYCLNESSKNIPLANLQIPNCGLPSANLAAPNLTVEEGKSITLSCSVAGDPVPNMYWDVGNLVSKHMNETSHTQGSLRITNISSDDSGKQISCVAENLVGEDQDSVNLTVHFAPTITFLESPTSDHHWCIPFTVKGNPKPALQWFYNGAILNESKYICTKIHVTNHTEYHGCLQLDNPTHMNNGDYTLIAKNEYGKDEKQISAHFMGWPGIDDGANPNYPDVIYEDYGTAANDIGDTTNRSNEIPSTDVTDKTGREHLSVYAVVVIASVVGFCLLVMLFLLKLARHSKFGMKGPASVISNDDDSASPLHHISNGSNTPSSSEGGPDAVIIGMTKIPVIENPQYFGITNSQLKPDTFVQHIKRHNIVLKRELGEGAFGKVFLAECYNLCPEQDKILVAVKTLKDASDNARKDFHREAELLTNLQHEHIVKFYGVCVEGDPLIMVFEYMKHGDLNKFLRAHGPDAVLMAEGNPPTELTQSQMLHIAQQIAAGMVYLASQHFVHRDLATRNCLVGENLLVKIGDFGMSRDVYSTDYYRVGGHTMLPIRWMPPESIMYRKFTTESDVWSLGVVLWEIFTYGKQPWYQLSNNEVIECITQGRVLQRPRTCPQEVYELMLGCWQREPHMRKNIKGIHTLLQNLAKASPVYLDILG
Text: (§2) To determine if an identified active compound promotes tyrosine phosphorylation of the other Trk receptors, HEK293 cells are transfected with various Trk receptors, which is followed by treatment with the identified active compound. Treatment with an identified active compound that elicits tyrosine phosphorylation in the TrkB receptor but not in the TrkA or TrkC receptor indicates an active compound.
(§3) To determine whether deoxygedunin binds the intra-cellular domain (ICD) or extra-cellular domain (ECD) of the TrkB receptor, ligand binding assays with [^3H]-deoxygedunin were performed. […] The coprecipitated HA-TrkB was also prominently tyrosine phosphorylated (see FIG. 14, 3rd panel).

TrkC = target: T3, TrkC (Homo sapiens, UniProt Q16288); experiment: Tyrosine phosphorylation of TrkC in transfected HEK293 cells; assay type: cell-based
T3 construct: expressed in transfected cells; host or cells: HEK293
T3 sequence (Q16288 32-839, species assumed): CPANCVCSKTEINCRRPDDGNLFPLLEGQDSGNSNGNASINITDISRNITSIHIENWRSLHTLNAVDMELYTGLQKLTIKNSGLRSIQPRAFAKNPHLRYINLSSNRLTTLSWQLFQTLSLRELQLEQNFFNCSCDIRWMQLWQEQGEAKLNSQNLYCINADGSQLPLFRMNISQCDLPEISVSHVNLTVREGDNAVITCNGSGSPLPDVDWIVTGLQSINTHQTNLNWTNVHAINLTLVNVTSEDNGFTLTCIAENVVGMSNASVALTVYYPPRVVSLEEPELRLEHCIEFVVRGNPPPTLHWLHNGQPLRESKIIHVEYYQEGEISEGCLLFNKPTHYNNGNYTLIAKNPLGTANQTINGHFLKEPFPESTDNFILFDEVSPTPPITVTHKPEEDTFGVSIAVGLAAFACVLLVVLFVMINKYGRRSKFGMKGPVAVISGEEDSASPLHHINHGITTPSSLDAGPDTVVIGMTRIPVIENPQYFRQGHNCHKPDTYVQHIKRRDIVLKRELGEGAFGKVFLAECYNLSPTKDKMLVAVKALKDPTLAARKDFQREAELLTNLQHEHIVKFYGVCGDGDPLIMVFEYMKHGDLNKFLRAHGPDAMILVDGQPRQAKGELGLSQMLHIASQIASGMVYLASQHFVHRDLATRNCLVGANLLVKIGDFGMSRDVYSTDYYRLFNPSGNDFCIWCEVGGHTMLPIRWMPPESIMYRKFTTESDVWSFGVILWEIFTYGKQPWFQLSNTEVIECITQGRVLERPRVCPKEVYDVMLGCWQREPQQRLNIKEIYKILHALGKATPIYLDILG
Text: as §2, §3

caspase-3 = experiment: Caspase-3 activation in cortical neurons from knockout mouse pups; assay type: cell-based
Experimental: To determine whether an identified active compound selectively activates TrkB receptor and prevents neuronal cell death, cortical neurons are prepared from homozygous pups of TrkB +/− mice, which are mated to the same genotype. The activation of TrkB and down stream indicators of TrkB activation, such as Capase-3, are monitored. To further assess whether an identified active compound blocks neuronal apoptosis in a TrkB dependent manner, cortical neurons are prepared from homozygous pups of […], which are mated to the same genotype. Again, the activation of TrkB and down stream indicators of TrkB activation, such as Capase-3, are monitored.
Additionally, the spontaneous caspase-3 activation in […] was suppressed by deoxygedunin.

TrkA [4] = target: T4, TrkA (Mus musculus, UniProt Q3UFB7); experiment: TrkA phosphorylation in mouse brain after i.p. injection; assay type: in vivo; parameters: endogenous in cells; conditions: mice, 5 mg/kg i.p.
T4 sequence (Q3UFB7 34-799): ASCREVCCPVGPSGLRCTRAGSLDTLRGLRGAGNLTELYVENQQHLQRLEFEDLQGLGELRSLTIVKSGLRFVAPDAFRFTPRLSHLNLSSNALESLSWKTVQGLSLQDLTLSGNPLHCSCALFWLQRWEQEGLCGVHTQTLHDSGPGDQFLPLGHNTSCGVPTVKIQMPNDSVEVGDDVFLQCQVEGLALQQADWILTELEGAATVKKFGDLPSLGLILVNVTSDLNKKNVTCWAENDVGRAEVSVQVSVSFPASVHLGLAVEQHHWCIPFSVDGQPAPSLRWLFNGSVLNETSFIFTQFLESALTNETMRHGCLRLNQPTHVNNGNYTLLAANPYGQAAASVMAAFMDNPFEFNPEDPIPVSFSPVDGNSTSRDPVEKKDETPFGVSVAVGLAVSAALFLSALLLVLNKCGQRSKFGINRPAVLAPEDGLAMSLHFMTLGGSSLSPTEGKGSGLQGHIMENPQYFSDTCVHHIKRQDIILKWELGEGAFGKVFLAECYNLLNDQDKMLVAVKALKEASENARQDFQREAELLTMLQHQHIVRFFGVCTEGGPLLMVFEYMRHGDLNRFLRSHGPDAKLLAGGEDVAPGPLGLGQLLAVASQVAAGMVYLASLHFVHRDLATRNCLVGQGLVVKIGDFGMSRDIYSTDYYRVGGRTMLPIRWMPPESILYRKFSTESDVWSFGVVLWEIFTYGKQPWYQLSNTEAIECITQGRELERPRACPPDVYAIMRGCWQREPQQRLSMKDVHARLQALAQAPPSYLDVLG

TrkA [5] = target: T4, TrkA; experiment: TrkA activation in cortical neurons from knockout mouse pups; assay type: cell-based; parameters: endogenous in cells; host or cells: primary cortical neurons from mouse pups

CC(=O)O[C@@H]1C[C@H]2C(C)(C)C(=O)C=C[C@]2(C)[C@H]2CC[C@]3(C)C(=CC(=O)O[C@H]3c3ccoc3)[C@@]21C [deoxygedunin]
TrkB phosphorylation (TrkB [1]): strong TrkB phosphorylation | minimal required drug concentration for Erk1/2 and Akt activation (Erk1/2 and Akt): 100 to 250 nM | Erk1/2 and Akt activation (Erk1/2 and Akt; time course and dose dependency): prominently provoked both Erk1/2 and Akt activation | time after injection at which TrkB was phosphorylated in the brain (TrkB [2]; mice, 5 mg/kg i.p.): 2 h | time of peak TrkB phosphorylation in the brain (TrkB [2]; mice, 5 mg/kg i.p.): 4 to 8 h | blood-brain barrier penetration (TrkB [2]; mice, 5 mg/kg i.p., inferred from brain TrkB phosphorylation): penetrated the blood-brain barrier | TrkB activation in hippocampus (immunohistochemistry staining) (TrkB [2]; mouse hippocampus upon treatment): robust TrkB activation in hippocampus | tyrosine phosphorylation in TrkB (TrkB [3]): elicited tyrosine phosphorylation in TrkB | tyrosine phosphorylation in TrkC (TrkC): not in TrkA or TrkC receptor | blockade of glutamate-provoked caspase-3 activation (caspase-3; TrkB −/− cortical neurons): not TrkB −/− neurons | spontaneous caspase-3 activation (caspase-3; TrkC −/− neurons): suppressed | glutamate triggered caspase-3 activation (caspase-3; wild-type and TrkC knockout neuron experiment): diminished | blockade of glutamate-provoked caspase-3 activation (caspase-3; wild-type cortical neurons): substantially blocked | TrkA phosphorylation in the brain (TrkA [4]): not TrkA | TrkA activation (TrkA [5]; both wild-type and TrkC knockout neurons): not TrkA activation | TrkA activation (TrkA [5]; cortical neurons (pups of TrkB +/− mice)): not TrkA receptor
